Measured values reported in patent publication US20050222253A1, “Anti-cancer nitro- and thia-fatty acids” (priority 1999, published 2005).
Entries after “also recorded” stand apart in the source; their conditions may differ.

How the values were obtained:
5-LO = 5-LO (Solanum tuberosum, UniProt P37831); test: Effect on 5-LO catalysed oxidation of arachidonic acid; type: biochemical; conditions: preliminary experiment, purified enzyme, result in words
Procedure: Based on this consideration, 5-LO, 12-LO and 15-LO catalysed oxidation of the nitro compounds (4a, 4b, 6a, 6b, 8a and 8b) was investigated. Each of the nitro compounds was treated with 15-LO in pH 9.0 buffer (or 5-LO in pH 6.3 buffer and 12-LO in pH 7.4 buffer), and the formation of 15-hydroperoxy derivatives (or 5-hydroperoxy or 12-hydroperoxy derivatives) over time was monitored by LW spectroscopy at 234 nm. […]

12-LO = biological target: T1, 12-LO (Sus scrofa, UniProt P16469); test: Effect on 12-LO catalysed oxidation of arachidonic acid; type: biochemical, porcine; conditions: preliminary experiment, result in words
T1 construct: purchased Cayman Chemical Company
T1 sequence (P16469 1-663): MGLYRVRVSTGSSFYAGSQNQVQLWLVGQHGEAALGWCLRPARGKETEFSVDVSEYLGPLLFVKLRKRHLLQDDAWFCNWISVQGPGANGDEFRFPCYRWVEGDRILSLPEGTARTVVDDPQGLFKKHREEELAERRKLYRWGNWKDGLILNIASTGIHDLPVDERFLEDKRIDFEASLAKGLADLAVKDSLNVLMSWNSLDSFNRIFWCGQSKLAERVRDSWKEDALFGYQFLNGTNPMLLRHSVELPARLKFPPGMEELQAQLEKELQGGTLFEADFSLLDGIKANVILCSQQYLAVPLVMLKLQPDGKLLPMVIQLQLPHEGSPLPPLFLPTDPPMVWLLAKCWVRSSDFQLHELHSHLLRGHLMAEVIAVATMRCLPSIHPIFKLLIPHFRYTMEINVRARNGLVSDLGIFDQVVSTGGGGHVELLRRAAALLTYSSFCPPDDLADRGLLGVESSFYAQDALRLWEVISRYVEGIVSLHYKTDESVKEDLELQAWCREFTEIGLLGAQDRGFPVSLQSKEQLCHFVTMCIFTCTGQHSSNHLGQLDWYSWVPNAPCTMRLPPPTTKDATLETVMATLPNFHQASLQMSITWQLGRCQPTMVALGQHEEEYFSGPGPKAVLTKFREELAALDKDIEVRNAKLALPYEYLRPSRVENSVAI
Procedure: Based on this consideration, 5-LO, 12-LO and 15-LO catalysed oxidation of the nitro compounds (4a, 4b, 6a, 6b, 8a and 8b) was investigated. Each of the nitro compounds was treated with 15-LO in pH 9.0 buffer (or 5-LO in pH 6.3 buffer and 12-LO in pH 7.4 buffer), and the formation of 15-hydroperoxy derivatives (or 5-hydroperoxy or 12-hydroperoxy derivatives) over time was monitored by LW spectroscopy at 234 nm.
A number of Lx compounds were tested for anti 5-LOX and 12-LOX activities in the human breast cancer cell line, MCF-7. […] The ability of 5-LOX and 12-LOX to produce oxidated products of 20:4n-6 with a different absorption wavelength in the presence of nitroso-PUFA was examined and is shown in the progress curves in FIG. 6. […] Within cells, activation of 5-LOX is facilitated by 5-LOX activating protein (FLAP). Thus, in intact cells, Lx7 and Lx9 may be able to activate 5-LOX at lower concentrations than those required in the purified enzyme system shown in FIG. 6. […] By being able to activate 5-LOX and suppress 12-LOX, these compounds have the desired characteristics of anti-breast cancer agents as discussed previously.
15-LO was obtained from Sigma Chemical Company, and 12-LO from Cayman Chemical Company. Arachidonic acid 1, linolenyl alcohol 57a, gamma linolenyl alcohol 5b, arachidonyl alcohol 57c and docosahexaenyl alcohol 57d were purchased from Nu-Chek Prep. Inc. Elysian, Minn., USA. Other chemicals were commercially available from Aldrich Chemical Company.

DU145 cells = test: DU145 tumour cell survival (MTS cell proliferation assay); type: cell-based, human; conditions: for Anti tumour effect on DU145 tumour cells: various concentrations and times (FIGS. 1, 2); for DU145 cell survival, screening test: 20 μM fatty acid, 24 hrs, MTS (FIG. 4)
Procedure: Lx compounds were tested for activity against two androgen insensitive prostate cancer tumour cell lines, DU145(liver metastases) and PC3(brain metastases). […] Survival was measured using the MTS cell proliferation assay.
Various concentrations for varying amounts of time of Lx compounds were added to either DU145 or PC3 tumour cells in culture. Viability/death of tumour cells was measured by a standard colourimetric assay. […] It is also evident from the results (FIG. 2) that the saturated nitro compound Lx1 (19:0-NO2) is not active and neither is MP2 (β-thia 23:0), a saturated […] fatty acid. […] In a further screening test, the human prostate cell line, DU145 cells (liver metastases), was treated for 24 hrs with 20 μM Fatty Acid and cell survival was measured using the MTS cell proliferation assay. This assay uses colourimetric measurement of substrate conversion to formazan which occurs only in the presence of NADH in a metabolically active cell. There was varied anti-tumour activity amongst the different types of PUFA.
(§1) DU145 cells were treated with PUFA and incubated for 24 h (for the proliferation assay), 4 h (for the caspase assay) and for 18 h (for PARP cleavage).
(§2) Proliferation was quantitated by MTS assay. Caspases 3 and 7 were assayed by a fluorometric assay using a […] substrate. PARP cleavage was measured by Western blots using an anti PARP antibody.

15-LO = biological target: T2, 15-LO (Glycine max, UniProt P08170); test: Effect on 15-LO catalysed oxidation of arachidonic acid; type: biochemical, soybean; conditions: preliminary experiment, result in words
T2 construct: purchased Sigma Chemical Company
T2 sequence (P08170 1-839): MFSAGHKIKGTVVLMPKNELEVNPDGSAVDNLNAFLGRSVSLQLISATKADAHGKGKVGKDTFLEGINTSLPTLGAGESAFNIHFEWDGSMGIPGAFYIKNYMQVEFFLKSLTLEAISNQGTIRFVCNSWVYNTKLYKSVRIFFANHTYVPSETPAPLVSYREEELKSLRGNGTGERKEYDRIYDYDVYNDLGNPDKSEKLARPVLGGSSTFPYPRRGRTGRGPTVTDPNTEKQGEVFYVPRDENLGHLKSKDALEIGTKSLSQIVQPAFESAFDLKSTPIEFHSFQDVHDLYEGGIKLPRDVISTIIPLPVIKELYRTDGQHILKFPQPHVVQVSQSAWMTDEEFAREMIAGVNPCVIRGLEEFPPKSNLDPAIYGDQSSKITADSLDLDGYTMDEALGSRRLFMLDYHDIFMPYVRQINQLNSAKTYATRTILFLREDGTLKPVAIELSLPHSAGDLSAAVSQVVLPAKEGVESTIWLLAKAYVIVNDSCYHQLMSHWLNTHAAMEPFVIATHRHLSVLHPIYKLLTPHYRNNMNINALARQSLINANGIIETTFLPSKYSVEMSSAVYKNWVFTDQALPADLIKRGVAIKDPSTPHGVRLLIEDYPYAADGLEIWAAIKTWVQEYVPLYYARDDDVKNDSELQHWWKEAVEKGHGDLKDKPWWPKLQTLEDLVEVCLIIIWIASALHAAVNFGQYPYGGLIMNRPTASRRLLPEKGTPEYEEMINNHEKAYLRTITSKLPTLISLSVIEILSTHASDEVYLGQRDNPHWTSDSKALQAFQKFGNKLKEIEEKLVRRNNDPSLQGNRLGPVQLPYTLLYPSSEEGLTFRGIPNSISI

MCF-7 cells = test: Killing of MCF-7 breast cancer cells in vitro; type: cell-based, human; conditions: in vitro (FIG. 7); compared with 20:4n-6 toxicity
Text: While interference with 5-LOX or 12-LOX activity individually impacts on growth rates of human breast cancer MCF-7 cells^(55,56), the simultaneous modification of the activities of both enzymes at once may cause death. […] Lx4, a nitroso-compound with the same number of carbon atoms and degree of unsaturation as Lx9 but lacking a COOH group, was ineffective (FIG. 7).

PARP = PARP cleavage by Western blot in DU145 cells; type: cell-based, human; conditions: 18 h, anti PARP antibody (FIG. 5C)
Procedure: as §1, §2

Caspases 3 and 7 = test: Caspase 3 and 7 fluorometric assay in DU145 cells; type: cell-based, human
Procedure: as §1, §2

Sequence of 5-LO (P37831 whole entry): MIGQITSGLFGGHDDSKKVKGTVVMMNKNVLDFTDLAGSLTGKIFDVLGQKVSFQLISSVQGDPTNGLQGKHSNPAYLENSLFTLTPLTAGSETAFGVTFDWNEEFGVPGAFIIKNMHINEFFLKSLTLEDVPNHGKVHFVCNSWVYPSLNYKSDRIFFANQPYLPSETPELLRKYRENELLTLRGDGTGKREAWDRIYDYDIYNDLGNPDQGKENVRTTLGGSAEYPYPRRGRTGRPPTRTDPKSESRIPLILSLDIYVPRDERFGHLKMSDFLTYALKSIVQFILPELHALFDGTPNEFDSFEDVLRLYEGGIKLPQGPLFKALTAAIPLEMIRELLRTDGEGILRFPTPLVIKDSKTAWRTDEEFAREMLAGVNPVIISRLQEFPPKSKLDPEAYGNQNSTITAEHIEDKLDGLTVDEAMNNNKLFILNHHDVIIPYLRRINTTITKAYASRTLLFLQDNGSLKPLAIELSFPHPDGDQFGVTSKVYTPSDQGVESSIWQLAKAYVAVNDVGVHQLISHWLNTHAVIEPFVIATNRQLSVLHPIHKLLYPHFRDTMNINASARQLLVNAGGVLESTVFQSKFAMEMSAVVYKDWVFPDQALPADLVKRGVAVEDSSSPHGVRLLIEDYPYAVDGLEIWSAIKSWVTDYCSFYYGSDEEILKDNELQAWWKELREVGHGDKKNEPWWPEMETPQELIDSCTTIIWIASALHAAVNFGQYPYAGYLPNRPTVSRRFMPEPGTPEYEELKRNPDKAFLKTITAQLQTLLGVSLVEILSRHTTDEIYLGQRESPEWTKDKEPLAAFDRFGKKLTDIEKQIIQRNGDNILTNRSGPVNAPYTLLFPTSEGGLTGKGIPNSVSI

`CCCCCCCCCCCCCC[S+]([O-])CCC(=O)O` (centres unmarked) [Compound 113, 3-(tetradecylsulfinyl) propionic acid] showed a melting point of 166 to 167 °C.

In the case of `CCCCCCCCCCCCCCCCCC[N+](=O)[O-]` [Lx1, 1-Nitrooctadecane], the “Effect on 5-LO catalysed oxidation of AA” value (5-LO) was “Nil”, the “Effect on 12-LO catalysed oxidation of AA” value (12-LO) was “Nil” and the “Anti tumour effect on DU145 tumour cells” value (DU145 cells) was “not active”. For the same compound, the “Effect on 15-LO catalysed oxidation of AA” value (15-LO) was “Nil”.

In the case of `CC/C=C\C/C=C\C/C=C\CCCCCCCC[N+](=O)[O-]` [Lx2, (z,z,z)-1-Nitro-9,12,15-octadecatriene], the “Effect on 15-LO catalysed oxidation of AA” value (15-LO) was “Nil”.

With `CCCCC/C=C\C/C=C\C/C=C\CCCCC[N+](=O)[O-]` [Lx3, (z,z,z)-1-Nitro-6,9,12-octadecatriene] the “Effect on 15-LO catalysed oxidation of AA” value (15-LO) was “Nil”.

With `CCCCC/C=C\C/C=C\C/C=C\C/C=C\CCCC[N+](=O)[O-]` [Lx4, (all-z)-1-Nitro-5,8,11,14-eicosatetraene] the “Killing of MCF-7 tumour cells” value (MCF-7 cells) was “ineffective”, the “Effect on 5-LO catalysed oxidation of AA” value (5-LO) was “Nil” and the “Effect on 12-LO catalysed oxidation of AA” value (12-LO) was “Nil”. For the same compound, the “Effect on 15-LO catalysed oxidation of AA” value (15-LO) was “Nil”.

For `CC/C=C\C/C=C\C/C=C\C/C=C\C/C=C\C/C=C\CCC[N+](=O)[O-]` [Lx5, (all-z)-1-Nitro-4,7,10,13,16,19-docosahexaene], the “Effect on 15-LO catalysed oxidation of AA” value (15-LO) was “Nil”.

In the case of `CCCCCCCCCCCCCCCCCC(CCC(=O)O)[N+](=O)[O-]` (centres unmarked) [Lx6, 4-Nitrohenicosanoic acid], the “Effect on 5-LO catalysed oxidation of AA” value (5-LO) was “Inhibitory”, the “Effect on 5-LO catalysed oxidation of AA” value (5-LO; listed as 4-nitrohenicosanoic acid) was “selective inhibitors” and the “Effect on 5-LO catalysed oxidation of AA” value (5-LO; listed as 6a) was “inhibiting 5-LO”. For the same compound, the “Effect on 12-LO catalysed oxidation of AA” value (12-LO) was “Activatory”, the “Killing of DU145 tumour cells” value (DU145 cells; 15 μM, after 24 hours of culture (FIG. 2)) was “killing of all the tumour cell population” and the “Anti tumour effect on DU145 tumour cells” value (DU145 cells) was “concentration and time related effects”. For the same compound, the “Effect on 15-LO catalysed oxidation of AA” value (15-LO) was “Activatory” and the “Effect on 15-LO catalysed oxidation of AA” value (15-LO; listed as 6a) was “not 15-LO”.

For `CCCCC/C=C\C/C=C\C/C=C\C/C=C\CCCC(CCC(=O)O)(CCC(=O)O)[N+](=O)[O-]` [Lx9, 3-[(all-Z)-Nonadeca-4,7,10,13-tetraenyl]-3-nitropentane-1,5-dicarboxylic acid], the “Killing of MCF-7 tumour cells” value (MCF-7 cells) was “kill these tumour cells”, the “Effect on 5-LO catalysed oxidation of AA” value (5-LO) was “can activate 5-LOX; also recorded: Activatory” and the “Effect on 12-LO catalysed oxidation of AA” value (12-LO) was “direct, potent and rapid inhibitor of 12-LOX; also recorded: Inhibitory”. The “Effect on 12-LO catalysed oxidation of AA” value (12-LO; listed as 3-(all-Z)-nonadeca-4,7,10,13-tetraenyl]-3-nitropentane-1,5-dicarboxylic acid) was “selective inhibitors”, the “Effect on 12-LO catalysed oxidation of AA” value (12-LO; listed as 8b) was “significant inhibitory effect” and the “Effect on 15-LO catalysed oxidation of AA” value (15-LO) was “Nil”.

For `CCCCC/C=C\C/C=C\C/C=C\C/C=C\CCCCOCC(=O)O` [MP3], the PARP cleavage (PARP) was “cleavage of PARP”, the Activation of caspases (Caspases 3 and 7; DU145 cells, 4 h (FIG. 5B)) was “activation of caspases” and the “Induction of apoptosis in DU145 cells” value (Caspases 3 and 7; concluded from caspase activation and PARP cleavage) was “induce apoptosis”. For the same compound, the “DU145 cell survival, screening test” value (DU145 cells) was “highly active” and the DU145 cell proliferation (DU145 cells; 24 h, MTS assay (FIG. 5A)) was “marked inhibition of cell proliferation”.

For `CCC=CCC=CCC=CCC=CCC=CCC=CCCCOCC(=O)O` [MP6], the “DU145 cell survival, screening test” value (DU145 cells) was “most active”.

For `CCCCC/C=C\C/C=C\C/C=C\C/C=C\CCCCSCC(=O)O` [MP8, (all-Z)-(eicosa-5,8,11,14-tetraenylthio) acetic acid], the “DU145 cell survival, screening test” value (DU145 cells) was “highly active”.

In the case of `CCCCC/C=C\C/C=C\C/C=C\CCCCCSCC(=O)O` [MP9], the “DU145 cell survival, screening test” value (DU145 cells) was “most active”.

For `CCC=CCC=CCC=CCCCCCCCCSCC(=O)O` [MP10], the “DU145 cell survival, screening test” value (DU145 cells) was “most active”.

In the case of `CCCCC/C=C\C/C=C\C/C=C\CCCCCSCCC(=O)O` [MP12], the “DU145 cell survival, screening test” value (DU145 cells) was “most active”.

For `CC/C=C\C/C=C\C/C=C\CCCCCCCCSCCC(=O)O` [MP13, 3-[(Z,Z,Z)-(octadeca-9,12,15-trienylthio)]propionic acid], the “DU145 cell survival, screening test” value (DU145 cells) was “highly active”.

In the case of `CC/C=C\C/C=C\C/C=C\C/C=C\C/C=C\C/C=C\CCC(=O)NCC(=O)O` [PTS], the “DU145 cell survival, screening test” value (DU145 cells) was “some activity”.
